The subject of assay [1] is prostate cancer cell lines. Particulars: cited from earlier work.
Assay [2] has as its system estrogen-dependent and independent breast cancer cells. The settings on record: isolated DIM in cell culture; cited from earlier work.
In assay [3] the test system is apoptosis-specific nucleosomes. Put plainly: Nucleosome ELISA in lung of RSV infected BALB/c mice. The format is in vivo. The settings on record: oral and subcutaneous DIM, FIG. 5B. On the procedure: (§1) The Following Experimental BALB/c Groups and Treatment Protocol Using DIM were Studied: • 1. RSV infected positive control group, infected with RSV and injected subcutaneously (SC) once daily with DMSO/Phosphate Buffered Saline (PBS) vehicle. • 2. RSV infected, Low dose Parenteral DIM group (15 mg/kg/day), injected SC once daily with DIM suspension • 3. RSV infected, High dose DIM Group (150 mg/kg/day), injected SC once daily with DIM suspension • 4. RSV infected, orally treated DIM group (250 mg/kg/day from absorption enhanced DIM [Example 6.1]), added to powdered feed • 5. Uninfected negative control group, nasally administered vehicle only, and injected subcutaneously (SC) once daily with DMSO/PBS vehicle
(§2) Mouse treatment, infection and harvest. Intranasal application of RSV in BALB/c mice followed an established procedure (Bitko et al., 2005, Nat Med. 11(1):50-5) and causes predictable pulmonary disease and inflammation. For RSV infection, RSV stock was diluted such that each mouse was given 10^7 pfu (plaque forming unit) of the virus intranasally. […]
Nucleosomes released in the cytoplasm during apoptosis were detected by a nucleosome ELISA assay kit (Calbiochem Nucleosome ELISA kit, Cat. No. QIA25, San Diego, Calif.) according to the manufacturer's protocol (User Protocol Q1A25 Rev. 28 Sep. 2005 RFH).
A general note: An ELISA detects its analyte on a solid surface through an enzyme-linked reagent.

The test system of assay [4] is Caspase-3. Briefly: Caspase-3 activation in RSV infected A549 cell culture. Type of assay: cell-based, human. The settings on record: RSV infected A549 cells; DIM 70, 210, and 700 nM.
Assay [5] deals with RSV infected A549 pulmonary epithelial cells. Put plainly: Phosphohistone (H2A.X Phosphorylation) assay of apoptosis in RSV infected A549 cells. The format is cell-based, human. The settings on record: 18 hour treatment, FIG. 1. On the procedure:
Cell Culture—A549 cells, a tumor cell line with properties of normal airway epithelial cells, were obtained from American Type Culture Collection (ATCC, Manassas, Va.) and incubated at 37° C. in 5% CO2. The cells were cultured in Eagle's minimum essential medium (MEM, Invitrogen) supplemented with 10% fetal bovine serum (HyClone, Logan, Utah) and […] gentamicin. The A549 cells were subcultured by harvesting in 0.12% trypsin no more than 20 times from stock originally designated at pass 70. To minimize effects of exogenous growth factors or cytokines in this system, the supplemented serum concentration was reduced to 0.5% 24 h prior to and during all experiments with RSV infection.
RSV Virus—RSV, strain A2, was obtained from Advanced Biotechnologies Inc. (Columbia, Md.) and was used directly as supplied for all experiments. The viral preparation was tested to have a TCID50 titer of ˜1×10^9 in Hep-2 cells at 7 days. […]
Cell Viability and Death Assays—Induction of Apoptosis by DIM in RSV infected A549 cell was measured according to a Phosphohistone Assay. […] The detection was done by LumiGLO™ chemiluminescent substrate and the plate was read in a microplate luminometer after 10-20 min. Luminescence indicated the extent of apoptosis in the sample examined.

The subject of assay [6] is Caspase 3. Put plainly: Ac-DEVD-AFC caspase-3 protease assay of lung homogenate of RSV infected BALB/c mice. Type of assay: in vivo. The settings on record: oral and subcutaneous DIM, FIG. 5A. On the procedure:
as §1, §2

Assay [7] deals with RSV Long strain. Briefly: Respiratory rate in RSV infected BALB/c mice. The format is in vivo. The settings on record: oral, SC low dose and SC high dose DIM; 6 and 10 days pi; vs RSV-infected, untreated control mice; FIG. 6. On the procedure:
as §1, §2
Pulmonary viral assay and clinical measurements. […] Respiratory rates (breaths per min) were determined by counting over a period of 2-3 mins. […]

Assay [8] has as its system chemically induced forms of breast cancer. The settings on record: orally administered, animals; cited from earlier work.

Entries after “also recorded” stand apart in the source; their conditions may differ.

In the case of `c1ccc2c(Cc3c[nH]c4ccccc34)c[nH]c2c1` [DIM, 3,3′-diindolylmethane], the anti-androgen activity result in assay [1] was “anti-androgen activity similar to non-indole antiandrogen drugs”. Also, the apoptosis effects entry in assay [2] was “apoptosis promoting effects”. In addition, the “apoptosis in mouse lung: apoptosis-specific nucleosomes” value in assay [3] was “increased presenence of apoptosis-specific nucleosomes”. Also, the “time of culture at which apoptosis specific Caspase-3 is activated” value in assay [4] is listed as “less than 12 hrs”. In assay [5] (DIM 70, 210, 700 nM, LY294002 2 and 5 μM), the cells undergoing apoptosis entry was “accelerated apopotosis in RSV infected cells; also recorded: significant, dose-related increase in cells undergoing apoptosis”. Also, the “Promotion of apoptosis by DIM compared with LY294002” value in assay [5] (nM DIM) is “more potent than that seen with LY294002”. In assay [6], the “apoptosis in mouse lung homogenate: activated Caspase 3” value is recorded as “increased apoptosis in lung tissue homogenate; also recorded: increased levels of apoptosis-specific, activated Caspase 3”. Also, in assay [7], the respiratory rate entry is “normalized respiratory rate; also recorded: lower respiratory rate”. In assay [8], the tumor growth result is given as “inhibits the growth of certain chemically induced forms of breast cancer”.

The values above are taken from patent publication US8552052B2, “Use of diindolylmethane-related indoles for the treatment and prevention of respiratory syncytial virus associated conditions” (BioResponse, L.L.C., priority 2004, dated 2013).
